# Measured values: US7232804B2, “Use of KPV tripeptide for dermatological disorders” (Zengen, Inc., priority 2001, dated 2007)
# Where a SMILES comes first, the peptide text is derived from it.
# Legend:
# [1] = tested on: fever; conditions: relative to parent peptide or α-MSH(11-13); cited from earlier work
# [2] = tested on: psoriatic lesions; assay: Topical treatment of psoriatic lesions in a subject, KPV in mineral oil vs contralateral Hydrocortisone; conditions: for Adverse reactions or side effects: treatment continued for eleven days
# Text: In a subject with a diagnosed and confirmed greater than ten year history of dermatologically symptomatic psoriasis, KPV was used to treat inflammation, scaling, dryness, pain, erythema, and pruritis. The subject had psoriatic lesions located bilaterally on the volar (palm side) surface of the forearms. The lesions varied in time of existence for greater than ten years with variagated presentation. The subject presented no opportunistic infection of the integument secondary to the psoriatic lesions.
# KPV in a crystalline form was prepared as disclosed in U.S. Pat. No. 5,028,592. Mineral oil was chosen as a carrier for the KPV preparation. One milligram of KPV was administered topically on the affected areas of the integument at a frequency of twice daily. For comparison purposes, a standard dosage amount of Hydrocortisone was placed on the contralateral area of the body of the subject that also manifested the dermatological sequelae of psoriasis. Topical administration was accomplished with standard cotton tipped applicators.
# This treatment was continued for eleven days.
# [3] = tested on: inflammation; conditions: relative to L-form tripeptide α-MSH (11-13); cited from earlier work
molecule,measurement,setting,value
"8-13 sequence: α-MSH 8-13 fragment (RWGKPV; Designed polypeptide with anti-inflammatory, anti-bacterial, anti-fungal and antipyretic properties.)",Antipyretic potency,[1],greater than that of the 11-13 sequence
"9-13 sequence: α-MSH 9-13 fragment (WGPKV; Designed polypeptide with anti-inflammatory, anti-bacterial, anti-fungal and antipyretic properties.)",Antipyretic potency,[1],almost devoid of activity
"10-13 sequence: α-MSH(11-13) with glycine added to form the 10-13 sequence (GKPV; Designed polypeptide with anti-inflammatory, anti-bacterial, anti-fungal and antipyretic properties.)",Antipyretic potency,[1],slightly decreased potency
C[C@]12CCC(=O)C=C1CC[C@@H]1[C@@H]2[C@@H](O)C[C@@]2(C)[C@H]1CC[C@]2(O)C(=O)CO [Hydrocortisone],Improvement of symptoms associated with the psoriatic lesions,"[2]; KPV one milligram twice daily in mineral oil, Hydrocortisone standard dosage on contralateral side",showed improvement
same,Period of symptom control / relief from symptoms,[2]; psoriatic lesions on forearms,three hours
same,Adverse reactions or side effects,[2],telangictasia and atrophy of skin
"CC(C)[C@H](NC(=O)[C@@H]1CCCN1C(=O)[C@@H](N)CCCCN)C(=O)O [KPV, lysine-proline-valine] (H-Lys-Pro-Val-OH)",Adverse reactions or side effects,[2],No adverse reactions or side effects
Ac-[D-K11]-α-MSH 11-13-NH2,Anti-inflammatory activity / general potency,[3],same general potency as the L-form
"[Nle^4,D-Phe^7]-α-MSH",Antipyretic potency,[1],approximately ten times more potent than the parent peptide
"α-MSH sequence (4-10): the ""core"" α-MSH sequence (4-10)",Antipyretic potency,[1],little antipyretic and anti-inflammatory activity
same,Anti-inflammatory activity / general potency,[3],little antipyretic and anti-inflammatory activity
